Measured values reported in paper PMC7819857, “Identification of Inhibitors of Integrin Cytoplasmic Domain Interactions With Syk” (Frontiers in Immunology, 2021).

How the values were obtained:
[1] = target: T1, GST-free Syk(6-370) (Homo sapiens, UniProt P43405); test: Thermal denaturation assay (SYPRO orange); assay type: binding; conditions: Syk(6-370) 2 µM, dose-dependent
T1 construct: Syk 6-370 (GST tag removed by thrombin cleavage) was used; GST (N, cleaved yes); made in house; host or cells: E. coli BL21(DE3)
Experimental: In this assay, Syk 6-370 (GST tag removed by thrombin cleavage) was used. Thrombin (GE Healthcare cat#270846, reconstituted in PBS to 1 unit/ul) was applied to the GST-Syk 6-370 protein bound to the Glutathione Sepharose beads. The GST-tag was cleaved with 20 unit/1 ml of protein-GST beads in PBS overnight at room temperature. After chromatography and additional cleaning on GST-beads, the purified protein was verified by SDS-PAGE. For thermal denaturation experiments, GST-free Syk(6-370) was used at a final concentration of 2 µM and SYPRO orange (Thermo Scientific, cat# S6650) at a 0.08% (v/v) dilution (from a 5000x stock). Compounds were used at indicated concentrations. Numerous reaction buffers were initially screened, and a final buffer containing 25 mM HEPES (pH 7.5) with 100 mM NaCl was used. Assays were performed in 20 µl volumes, in triplicate, in 384-well plates (Applied Biosystems MicroAmp 384-well clear optical reaction plate, catalogue #4483285). Plates were sealed with Applied Biosystems Optical Adhesive Cover (cat#4360954) and centrifuged for 2 min at 800 × g at room temperature. Thermal denaturation was measured on a Quant Studio 6 Flex Real-time PCR system (Applied Biosystems). […]

[2] = test system: Syk phosphorylation in THP-1 cells; test: Integrin α4β1-induced phosphorylation of Syk in THP-1 cells plated on CS-1; assay type: cell-based, human
Experimental: Compound loading of cells was facilitated by glycerol shock ([32], [33]). Methods were first optimized with the cell-impermeable fluorophore Sulfo-Cy5 (see Supplemental Figure S5 ). For analysis of compound inhibition of integrin signaling, 3 × 10^6 THP-1 cells were incubated in 200 ul serum-free RPMI containing 15% glycerol and ceftazidime (at indicated concentrations) for 1 h at 20°C. RPMI (3 ml, room temperature) containing ceftazidime (at indicated concentrations) was added to the cells to dilute the glycerol, and the cells were further incubated for 10 min (room temperature). Cells were then plated onto CS-1-BSA-coated plates for 15 min at 37°C, lysed in RIPA buffer (1% Triton X-100, 50 mM Tris-HCl pH 7.2, 150 mM NaCl, 0.25% NaDOC, 0.05% SDS, 2 mM PMSF, 1 mM NaF, 1 mM Na3VO4, and protease inhibitor cocktail) (AEBSF, Aprotinin, E-64, Bestatin, Leupeptin and Pepstatin; VWR Cat#97063-010), and the lysates were subjected to Western blot as described below.
Syk phosphorylation assays were performed by immobilizing vascular cell adhesion molecule-1 (VCAM)-1 (3 ug/ml), CS-1-BSA (10 ug/ml), or specific monoclonal antibodies (anti-FcγRI mAb 276426, anti-α4β1 mAb 19H8, anti-β2 mAb 76C3, anti-αvβ3 mAb LM609 all at 5 ug/ml) overnight at 4°C in Tris-HCl pH 7.5, 150 mM NaCl, in 6-well plates (non-tissue culture treated, Becton Dickenson, cat# BD351146). […] After electrophoresis, proteins were transferred to nitrocellulose for 1 h 100 V room temperature, blocked in 5% non-fat milk in TBS-T, and probed with the indicated primary antibody at 1:1,000 overnight at 4°C, followed by species-appropriate HRP secondary antibody (Southern Biotech) at 1:5,000 (30 min at room temperature), and detected using Pierce West Pico (Thermo Scientific cat# 34580). […]
Figure 4 Ceftazidime inhibition of integrin signaling. (A) Dose-response curves comparing ceftazidime antagonist activity against integrin β1A, β2, and β3 cytoplasmic domains binding to Syk as measured in AlphaScreen assays. […] Data are expressed as mean fluorescence (Fl520) ± the range from duplicate determinations. […]

[3] = test system: THP-1 cells; test: THP-1 cell adhesion to CS-1; assay type: cell-based, human; conditions: cells loaded by glycerol shock
Experimental: Supplemental Figure 6. Effects of ceftazidime on THP-1 adhesion to CS-1. Cells were loaded with ceftazidime by glycerol shock. After loading, cells were washed with media and loaded with calcein-AM. CS-1–conjugated bovine serum albumin was immobilized in 96-well plates (5 ug/ml), and adhesion assays were performed as previously described (1). Data are expressed as average fluorescence ± standard deviation from triplicates. One of two representative experiments is shown. The green line represents cell adhesion in the absence of ceftazidime.

- effect on melting temperature (Tm) of Syk(6-370) [1]: decreased
SMILES: CC(C)(O/N=C(\C(=O)N[C@@H]1C(=O)N2C(C(=O)[O-])=C(C[n+]3ccccc3)CS[C@H]12)c1csc(N)n1)C(=O)O [ceftazidime]
- integrin α4β1 induced phosphorylation of Syk ([2]; 100 µM loaded by glycerol shock, plated on CS-1, immunoprecipitation and western blot): inhibited
- α4β1-induced phosphorylation of Syk (pY352) ([2]; ceftazidime loaded by glycerol shock, indicated doses, cells plated on CS-1): inhibited
- α4β1 signaling through Syk ([2]; drug simply added to THP-1 cells, no glycerol loading): negative
- effect on THP-1 cell adhesion to CS-1 [3]: not due to ceftazidime inhibition of THP-1 cell adhesion to CS-1
